Data on eight compounds can be found in patent US20170121315A1, “HETEROBICYCLICALLY SUBSTITUTED 4-OXOBUTANE ACID DERIVATIVES AND USE THEREOF” (priority 2014, published 2017).

SMILES strings stand for the structures. A value given as a limit tells only on which side of the number the result lay.

Broadly, the IC50 is the point on the concentration scale where inhibition reaches its midpoint.

Type in all cases: biochemical
In one assay the target is T1, MMP-8 (Homo sapiens, UniProt P22894).
T1 construct: purchased R&D Systems 908-MP
T1 sequence (P22894 101-467): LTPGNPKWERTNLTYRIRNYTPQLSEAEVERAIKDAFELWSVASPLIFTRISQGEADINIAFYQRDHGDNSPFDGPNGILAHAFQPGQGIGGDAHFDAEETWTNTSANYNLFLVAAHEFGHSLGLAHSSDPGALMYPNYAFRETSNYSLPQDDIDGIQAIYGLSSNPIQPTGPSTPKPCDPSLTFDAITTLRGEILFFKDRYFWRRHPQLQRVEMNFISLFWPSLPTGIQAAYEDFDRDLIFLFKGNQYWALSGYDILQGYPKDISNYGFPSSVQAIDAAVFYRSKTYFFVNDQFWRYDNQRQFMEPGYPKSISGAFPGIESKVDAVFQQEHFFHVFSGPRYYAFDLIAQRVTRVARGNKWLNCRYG
Description: In vitro MMP-8 inhibition test. The note with it: human MMP-8. The source says: (§1) The MMP-mediated amidolytic cleavage of a suitable peptide substrate leads to an increase in fluorescent light here too. The signal intensity of the fluorescent light is directly proportional to the enzyme activity. The active concentration of a test compound at which half the enzyme is inhibited (50% signal intensity of the fluorescent light) is reported as the IC50 value.
(§2) Recombinant MMP-8 (R&D Systems, 908-MP) is chemically activated in accordance with the manufacturer's instructions using APMA. 1 μl of the test compound to be analysed (as a solution in DMSO, suitable concentrations e.g. 1 nM to 30 μM) is pipetted into 24 μl of activated enzyme (final concentration e.g. 0.5 nM) in reaction buffer (50 mM Tris/HCl pH 7.5, 10 mM CaCl2, 150 mM NaCl, 0.05% Brij®-35) in a white 384-hole microtiter plate (MTP). The enzymatic reaction is started by adding the intramolecularly quenched Mca-Pro-Leu-Gly-Leu-Dpa(Dnp)-Ala-Arg-NH2 substrate (final concentration e.g. 10 μM; R&D Systems, ES-001), so as to result in a total test volume of 50 μl. The course of the MMP-8 reaction is measured by measuring the fluorescence intensity (excitation 320 nm, emission 410 nm) over a suitable period of time (e.g. over 120 min at a temperature of 32° C.).

The next assay has as its target T2, MMP-2 (Homo sapiens, UniProt P08253).
T2 construct: purchased R&D Systems 902-MP
T2 sequence (P08253 110-660): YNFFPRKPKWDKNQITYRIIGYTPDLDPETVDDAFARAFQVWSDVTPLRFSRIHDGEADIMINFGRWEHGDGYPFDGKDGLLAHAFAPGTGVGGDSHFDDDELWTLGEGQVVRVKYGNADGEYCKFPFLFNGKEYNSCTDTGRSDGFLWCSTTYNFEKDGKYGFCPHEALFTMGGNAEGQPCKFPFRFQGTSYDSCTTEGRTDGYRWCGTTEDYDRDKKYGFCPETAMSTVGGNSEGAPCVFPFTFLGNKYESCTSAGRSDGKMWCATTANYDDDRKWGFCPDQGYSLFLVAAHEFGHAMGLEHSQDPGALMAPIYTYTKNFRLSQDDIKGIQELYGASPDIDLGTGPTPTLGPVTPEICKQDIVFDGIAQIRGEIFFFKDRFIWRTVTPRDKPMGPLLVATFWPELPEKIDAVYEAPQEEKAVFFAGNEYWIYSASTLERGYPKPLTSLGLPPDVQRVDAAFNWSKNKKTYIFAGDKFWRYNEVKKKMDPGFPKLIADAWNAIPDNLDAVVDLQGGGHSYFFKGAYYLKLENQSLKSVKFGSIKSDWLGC
The assay is described as follows: In vitro MMP-2 inhibition test. The note with it: human MMP-2.
Text: as §1
as §2, with “MMP-2” for “MMP-8”, “902-MP)” for “908-MP)”, “2” for “0.5”

The next assay has as its target T3, MMP-13 (Homo sapiens, UniProt P45452).
T3 construct: purchased R&D Systems 511-MP
The assay is described as follows: In vitro MMP-13 inhibition test. The conditions noted are these: human MMP-13.
Text: as §1
as §2, with “MMP-13” for “MMP-8”, “511-MP)” for “908-MP)”, “0.1” for “0.5”

The target of another assay is T4, MMP-14 (Homo sapiens, UniProt P50281).
T4 construct: purchased R&D Systems 918-MP
Description: In vitro MMP-14 inhibition test. The note with it: human MMP-14.
Text: as §1
Recombinant MMP-14 (R&D Systems, 918-MP) is enzymatically activated in accordance with the manufacturer's instructions using recombinant furin (R&D Systems, 1503-SE). 1 μl of the test compound to be analysed (as a solution in DMSO, suitable concentrations e.g. 1 nM to 30 μM) is pipetted into 24 μl of activated enzyme (final concentration e.g. 0.5 nM) in reaction buffer (50 mM Tris/HCl pH 7.5, 10 mM CaCl2, 150 mM NaCl, 0.05% Brij®-35) in a white 384-hole microtiter plate (MTP). The enzymatic reaction is started by adding the intramolecularly quenched Mca-Lys-Pro-Leu-Gly-Leu-Dpa(Dnp)-Ala-Arg-NH2 substrate (final concentration e.g. 5 μM; R&D Systems, ES-010), so as to result in a total test volume of 50 μl. The course of the MMP-14 reaction is measured by measuring the fluorescence intensity (excitation 320 nm, emission 410 nm) over a suitable period of time (e.g. over 120 min at a temperature of 32° C.).

`Cc1cccc(COc2ccc3oc(C(=O)CC(CCn4nnc5ccccc5c4=O)C(=O)O)cc3c2)c1` (racemic) [Example 51, (+/−)-4-{5-[(3-Methylbenzyl)oxy]-1-benzofur-2-yl}-4-oxo-2-[2-(4-oxo-1,2,3-benzotriazin-3(4H)-yl)ethyl]butanoic acid]: the IC50 was 34 µM against MMP-8, 19 µM against MMP-2, 11 µM against MMP-13 and greater than 40 µM on MMP-14.

Regarding `NC(=O)c1cccc(COc2ccc3oc(C(=O)CC(CCn4nnc5ccccc5c4=O)C(=O)O)cc3c2)c1` (single isomer, unassigned; (+)) [Example 34, (+)-4-{5-[(3-Carbamoylbenzyl)oxy]-1-benzofur-2-yl}-4-oxo-2-[2-(4-oxo-1,2,3-benzotriazin-3(4H)-yl)ethyl]butanoic acid], the 50% inhibitory concentration (IC50) was determined as 4.9 µM on MMP-8, 0.49 µM at MMP-2, 1.6 µM at MMP-13 and 7.9 µM at MMP-14.

With `O=C(CC(CCn1nnc2ccccc2c1=O)C(=O)O)c1cc2cc(OCCCc3ccccc3)ccc2o1` (racemic) [Example 37, (+/−)-4-Oxo-2-[2-(4-oxo-1,2,3-benzotriazin-3(4H)-yl)ethyl]-4-[5-(3-phenylpropoxy)-1-benzofur-2-yl]butanoic acid], the half-inhibitory concentration (IC50) against MMP-8 is 12 µM; at MMP-2, 3.3 µM; on MMP-13, 5.2 µM; against MMP-14, greater than 40 µM.

With `CCCCCCOc1ccc2c(C(=O)CC(CCn3nnc4ccccc4c3=O)C(=O)O)coc2c1` (single isomer, unassigned; (+)) [Example 100, (+)-4-[6-(Hexyloxy)-1-benzofur-3-yl]-4-oxo-2-[2-(4-oxo-1,2,3-benzotriazin-3(4H)-yl)ethyl]butanoic acid], the concentration for half-maximal inhibition (IC50) on MMP-8 is 2.8 µM; against MMP-2, 0.14 µM; at MMP-13 it was 0.14 µM; on MMP-14 it was 4 µM.

Turning to `O=C(CC(CCn1nnc2ccccc2c1=O)C(=O)O)c1cc2cc(OCCC3CCCC3)ccc2o1` (racemic) [Example 7, (+/−)-4-[5-(2-Cyclopentylethoxy)-1-benzofur-2-yl]-4-oxo-2-[2-(4-oxo-1,2,3-benzotriazin-3(4H)-yl)ethyl]butanoic acid], the concentration for half-maximal inhibition (IC50) was 22 µM against MMP-8, 0.92 µM on MMP-2, 5 µM at MMP-13 and greater than 40 µM against MMP-14.

For the compound `O=C(CC(CCn1nnc2ccccc2c1=O)C(=O)O)c1cc2cc(OCCCC(F)(F)F)ccc2o1` (single isomer, unassigned; enantiomer 2) [Example 13, (+)-4-Oxo-2-[2-(4-oxo-1,2,3-benzotriazin-3(4H)-yl)ethyl]-4-[5-(4,4,4-trifluorobutoxy)-1-benzofur-2-yl]butanoic acid (enantiomer 2)], the concentration for half-maximal inhibition (IC50) against MMP-8 came to 5 µM; on MMP-2, 1.3 µM; on MMP-13, 4.6 µM; on MMP-14, 17 µM.

As to `CCCOc1ccc2cc(C(=O)CC(CCn3nnc4ccccc4c3=O)C(=O)O)oc2c1` (racemic) [Example 58, (+/−)-4-Oxo-2-[2-(4-oxo-1,2,3-benzotriazin-3(4H)-yl)ethyl]-4-(6-propoxy-1-benzofur-2-yl)butanoic acid], the half-maximal inhibitory concentration (IC50) at MMP-8 is 10 µM; against MMP-2, 10 µM; against MMP-13, greater than 40 µM; on MMP-14, 2.2 µM.

Consider `O=C(CC(CCn1nnc2ccccc2c1=O)C(=O)O)c1cc2cc(OCC3CCCCC3)ccc2o1` (racemic) [Example 8, (+/−)-4-[5-(Cyclohexylmethoxy)-1-benzofur-2-yl]-4-oxo-2-[2-(4-oxo-1,2,3-benzotriazin-3(4H)-yl)ethyl]butanoic acid], for which the IC50 on MMP-8 was 30 µM; on MMP-2, greater than 40 µM; against MMP-13, 22 µM; at MMP-14, greater than 40 µM.
